Experimental data reported in ChEMBL document CHEMBL6078629, “Targeting Protein Kinase, Membrane-Associated Tyrosine/Threonine 1 (PKMYT1) for Precision Cancer Therapy: From Discovery to Clinical Trial” (J Med Chem, 2024).
pIC50, pKd: −log10 of the molar value. One block for each compound: values may come before it.

Experiments:
[1] = molecular target: T1, Membrane-associated tyrosine- and threonine-specific cdc2-inhibitory kinase (Homo sapiens, UniProt Q99640); assay: Inhibition of PKMYT1 (unknown origin) by TR-FRET analysis
T1 sequence (Q99640 whole entry): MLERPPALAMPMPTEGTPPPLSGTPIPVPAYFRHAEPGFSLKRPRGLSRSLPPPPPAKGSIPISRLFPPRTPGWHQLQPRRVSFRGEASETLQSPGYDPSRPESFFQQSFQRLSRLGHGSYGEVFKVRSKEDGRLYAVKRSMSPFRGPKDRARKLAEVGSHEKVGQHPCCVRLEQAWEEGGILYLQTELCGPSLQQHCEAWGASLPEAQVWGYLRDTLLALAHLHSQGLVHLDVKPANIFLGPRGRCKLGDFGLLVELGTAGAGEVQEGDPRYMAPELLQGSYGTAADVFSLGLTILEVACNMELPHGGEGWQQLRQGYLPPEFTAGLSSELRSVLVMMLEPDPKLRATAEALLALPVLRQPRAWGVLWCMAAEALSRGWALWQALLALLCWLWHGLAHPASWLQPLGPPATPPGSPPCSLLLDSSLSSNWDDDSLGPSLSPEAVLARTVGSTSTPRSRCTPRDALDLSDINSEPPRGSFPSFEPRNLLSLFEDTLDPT

[2] = molecular target: T1, Membrane-associated tyrosine- and threonine-specific cdc2-inhibitory kinase; assay: Inhibition of PKMYT1 (unknown origin)
MIA PaCa-2 = assay: Antiproliferative activity against human MIA PaCa-2 cells assessed as reduction in cell viability incubated for 48 hrs by MTT assay; type: functional, cell-based; conditions: MIA PaCa-2, 48 h
[3] = Half life in […] at 2 mg/kg, iv; type: ADME, organism-based; conditions: in vivo
[4] = Clearance in CD-1 mouse at 2 mg/kg, iv by LC-MS/MS analysis; type: ADME, organism-based; conditions: in vivo
HCC1569 = assay: Antiproliferative activity against human HCC1569 cells assessed as reduction in cell viability incubated for 48 hrs by MTT assay; type: functional, cell-based; conditions: HCC1569, 48 h
[5] = molecular target: T1, Membrane-associated tyrosine- and threonine-specific cdc2-inhibitory kinase; assay: Binding affinity to PKMYT1 (unknown origin) assessed as dissociation constant
Wee1-like protein kinase [6] = molecular target: T2, Wee1-like protein kinase (Homo sapiens, UniProt P30291); assay: Binding affinity to WEE1 (unknown origin) assessed as dissociation constant
T2 sequence (P30291 whole entry): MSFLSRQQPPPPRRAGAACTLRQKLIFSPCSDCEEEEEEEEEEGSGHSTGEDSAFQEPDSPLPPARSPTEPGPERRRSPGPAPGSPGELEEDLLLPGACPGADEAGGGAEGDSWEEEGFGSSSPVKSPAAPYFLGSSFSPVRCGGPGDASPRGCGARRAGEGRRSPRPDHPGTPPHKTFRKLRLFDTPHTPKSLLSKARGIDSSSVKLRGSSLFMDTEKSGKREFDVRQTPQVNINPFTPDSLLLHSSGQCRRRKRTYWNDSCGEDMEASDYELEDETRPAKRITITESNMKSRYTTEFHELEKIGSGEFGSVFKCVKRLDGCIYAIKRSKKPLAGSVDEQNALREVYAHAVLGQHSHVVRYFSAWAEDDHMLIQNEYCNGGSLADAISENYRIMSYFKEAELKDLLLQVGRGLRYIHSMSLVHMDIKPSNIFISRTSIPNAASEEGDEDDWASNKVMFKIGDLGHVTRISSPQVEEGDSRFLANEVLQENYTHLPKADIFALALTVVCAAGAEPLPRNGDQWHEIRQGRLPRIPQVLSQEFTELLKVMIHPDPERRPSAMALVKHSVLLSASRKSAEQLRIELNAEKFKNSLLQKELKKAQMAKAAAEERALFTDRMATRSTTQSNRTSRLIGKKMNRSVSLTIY

Wee1-like protein kinase [7] = molecular target: T2, Wee1-like protein kinase; assay: Inhibition of WEE1 (unknown origin)
[8] = molecular target: T1, Membrane-associated tyrosine- and threonine-specific cdc2-inhibitory kinase; assay: Inhibition of PKMYT1 (unknown origin) extracted from insect cells by TR-FRET analysis; type: cell-free, Insect cell

SMILES: Cc1nc2c3c(c(N)n(-c4c(C)ccc(O)c4C)c3n1)C(=O)NCC2
pIC50 [1]: ≥ 8.00

SMILES: Cc1cc2c(C(N)=O)c(N)n(-c3c(C)c(O)cc(F)c3C)c2nc1C
pIC50 [2]: ≥ 6.70
pIC50 (MIA PaCa-2): 5.36
half-life [3]: 0.56 h
clearance [4]: 94.4 mL/min/kg

SMILES: Cc1ccc(O)c(C)c1-n1nc(-c2nccs2)c(C(N)=O)c1N
pIC50 [2]: ≥ 8.00
pIC50 (Wee1-like protein kinase [7]): 6.30

SMILES: Cc1ccc(O)c(C)c1-n1c2ncc(N3CCOCC3)nc2c2c(N)ncnc21
pIC50 [2]: > 7.00
pIC50 (HCC1569): > 8.30

SMILES: Cc1ccc(O)c(C)c1-c1c(N)c(C(N)=O)nc2nccnc12
pIC50 [2]: > 7.30

SMILES: Cc1nc2c3c(c(N)n(-c4c(C)ccc(O)c4C)c3n1)C(=O)Nc1ccccc1-2
pIC50 (HCC1569): 7.66

SMILES: CSc1ncc2c(C(N)=O)c(N)n(-c3c(C)ccc(O)c3C)c2n1
pIC50 [2]: > 7.00

SMILES: Cc1ccc(O)c(C)c1C1C(N)=C(C(N)=O)C2C=C(C(C)C)C=NN21 (stereo not given)
pIC50 [2]: > 8.00

SMILES: CC1=NN2C(C=C1C1CC1)C(C(N)=O)=C(N)C2c1c(C)ccc(O)c1C (stereo not given)
pIC50 [2]: > 8.00

SMILES: Cc1ccc(O)c(C)c1-n1c(N)c(C(N)=O)c2c(=O)n(CF)ccc21
pIC50 [1]: 8.82

SMILES: Cc1ccc(O)c(C)c1-n1c(N)c2c3c(c(C)ncc31)CCNC2=O
pIC50 [1]: 8.00
pIC50 (Wee1-like protein kinase [7]): < 5.00

SMILES: CC1=CC2C(C(N)=O)=C(N)C(c3c(C)ccc(O)c3C)N2N=C1 (stereo not given)
pIC50 [2]: > 8.00

SMILES: Cc1ccc(O)c(C)c1-n1c(N)c2c3c(c(C)cnc31)CCNC2=O
pIC50 [1]: ≥ 8.00

SMILES: CC1=CC2C(C(N)=O)=C(N)C(c3c(C)ccc(O)c3C)N2N=C1C (stereo not given)
pIC50 [2]: > 8.00

SMILES: Cc1cc2c(C(N)=O)c(N)n(-c3c(C)ccc(O)c3C)c2nc1C [LUNRESERTIB]
pIC50 (MIA PaCa-2): 5.04
half-life [3]: 3.32 h
clearance [4]: 46.5 mL/min/kg

Results, then the compound that gave them:

pIC50 [1]: 8.14
SMILES: Cc1cc(Nc2ncc3cc(-c4c(Cl)cccc4Cl)c(=O)n(C)c3n2)ccc1F

pIC50 [2]: > 7.30
SMILES: Cc1ccc(O)c(C)c1-c1c(N)c(C(N)=O)nc2cccnc12

pIC50 (HCC1569): 7.38
SMILES: Cc1ccc(O)c(C)c1-n1c(N)c2c3c(ncnc31)-c1ccccc1NC2=O

pIC50 [2]: > 7.30
SMILES: COc1ccnc2c(-c3c(C)ccc(O)c3C)c(N)c(C(N)=O)cc12

pKd [5]: ≥ 8.00
pKd (Wee1-like protein kinase [6]): < 6.30
SMILES: Cc1ccc(O)c(C)c1-c1cc2cnc(Nc3ccccn3)nc2n(C)c1=O

pKd [5]: ≥ 8.00
pKd (Wee1-like protein kinase [6]): < 6.30
SMILES: CN(C)C(=O)NCc1cc(Nc2ncc3cc(-c4c(Cl)cccc4Cl)c(=O)n(C)c3n2)nnc1OCCN1CCS(=O)(=O)CC1

pKd [5]: ≥ 8.00
pKd (Wee1-like protein kinase [6]): < 6.30
SMILES: COc1ccc(Nc2ncc3cc(-c4c(C)ccc(O)c4C)c(=O)n(C)c3n2)nc1

pIC50 [2]: 6.30
SMILES: Cc1ccc(O)c(C)c1-c1cnc2[nH]c(-c3ccc(N4CCN(C)CC4)nc3C)nc2c1

pIC50 [2]: > 7.30
SMILES: Cc1c(O)cccc1-c1c(N)c(C(N)=O)nc2cccnc12

pKd [5]: ≥ 8.00
pKd (Wee1-like protein kinase [6]): < 6.30
SMILES: C[C@@H](O)CC[C@H](C)Oc1ccc(Nc2ncc3cc(-c4c(Cl)cccc4Cl)c(=O)n(C)c3n2)nn1

pIC50 [2]: ≥ 8.00
SMILES: Cc1ccc(-c2cc3c(Cl)c(-c4c(C)ccc(O)c4C)cnc3[nH]2)cn1

pIC50 [2]: ≥ 8.00
SMILES: Cc1ncc(-c2[nH]c3ncc(-c4c(C)ccc(O)c4C)nc3c2Cl)cn1

pIC50 [2]: > 7.30
SMILES: Cc1c(O)cccc1-c1c(N)c(C(N)=O)nc2cccc(C#N)c12

pIC50 [8]: 5.54
SMILES: CCOc1cc2ncc(C#N)c(Nc3ccc(F)c(Cl)c3)c2cc1NC(=O)/C=C\CN(C)C

pIC50 (HCC1569): 8.07
SMILES: Cc1ccc(O)c(C)c1-n1c(N)c2c3c(ncnc31)C=C(c1cnn(C)c1)NC2=O

pIC50 [2]: > 7.70
SMILES: Cc1ccc(O)c(C)c1-n1c(N)c(C(N)=O)c2cc(NC(N)=O)cnc21

pIC50 [2]: > 7.30
SMILES: Cc1c(O)cccc1-c1c(N)c(C(N)=O)cc2nccc(C#N)c12

pIC50 [2]: > 7.00
pIC50 (HCC1569): > 8.30
SMILES: Cc1cc2c3c(N)ncnc3n(-c3c(C)ccc(O)c3C)c2nc1C

pKd [5]: ≥ 8.00
pKd (Wee1-like protein kinase [6]): < 6.30
SMILES: CCn1ccc(Oc2ccc(Nc3ncc4cc(-c5c(Cl)cccc5Cl)c(=O)n(C)c4n3)nc2)n1

pIC50 [2]: > 7.30
SMILES: COc1ccnc2c(-c3cccc(O)c3C)c(N)c(C(N)=O)cc12

pIC50 [8]: 5.14
SMILES: COc1cc2ncnc(Nc3cccc(Cl)c3)c2cc1OC [TYRPHOSTIN AG-1478]
